According to patent US20030203000A1, “Modulation of therapeutic agent release from a polymeric carrier using solvent-based techniques” (priority 2002, published 2003):

Assay: paclitaxel release profile from block-copolymer-coated stents in PBS with 0.5% Tween 20
Format: physicochemical
Conditions: release in PBS with 0.5% Tween 20, FIG. 1
Text: A solution is provided that contains the following: 99 wt % solvent system, 0.25 wt % paclitaxel and 0.75 wt % block copolymer. The copolymer is synthesized using known techniques such as those described in U.S. Pat. No. 5,741,331, U.S. Pat. No. 4,946,899 and U.S. Ser. No. 09/734,639. The solvent system consists of tetrahydrofuran (THF) and toluene, which are provided in varying ratios in this example. The solution is provided by (1) mixing the paclitaxel and tetrahydrofuran, (2) adding the copolymer, (3) adding the toluene, (4) thoroughly mixing (e.g., overnight), and (5) filtering.
The solution is then placed in a syringe pump and fed to a spray nozzle. A stent is mounted onto a holding device parallel to the nozzle and, if desired, rotated to ensure uniform coverage. Depending on the spray equipment used, either the component or spray nozzle can be moved while spraying such that the nozzle moves along the component while spraying for one or more passes.
After a coating is formed in this fashion, it is dried, for example, by placing it in a preheated oven for 30 minutes at 65° C., followed by 3 hours at 70° C.
Three coated stents are formed in this manner using (in addition to 0.25 wt % paclitaxel and 0.75 wt % block copolymer) the following solvent species in the following relative amounts: (T) 99 wt % THF, (2) 75 wt % THF, 24 wt % toluene, (3) 50 wt % THF, 49 wt % toluene, (4) 25 wt % THF, 74 wt % toluene, (5) 5 wt % THF, 94 wt % toluene. Release rate as a function of time and cumulative release as a function of time (referred to herein as the “release profile”) were then measured in PBS with 0.5% Tweeng 20 (polyoxyethylene(20) sorbitan monolaurate) available from Sigma-Aldrich. The results are graphically illustrated in FIG. 1.

CC(=O)O[C@H]1C(=O)[C@@]2(C)[C@H]([C@H](OC(=O)c3ccccc3)[C@]3(O)C[C@H](OC(=O)[C@H](O)[C@@H](NC(=O)c4ccccc4)c4ccccc4)C(C)=C1C3(C)C)[C@]1(OC(C)=O)CO[C@@H]1C[C@@H]2O [paclitaxel]
paclitaxel release (release profile) (coating formed from higher THF-to-toluene ratios in the solvent system): more accelerated paclitaxel release
paclitaxel release (release profile) (coating formed from lower THF-to-toluene ratios in the solvent system): more extended paclitaxel release
paclitaxel release (release rate and cumulative release as a function of time) (stent coating of 0.25 wt % paclitaxel and 0.75 wt % block copolymer, THF solvent system with toluene added): reduced by the addition of toluene
